Measurements as given in PMC8330100, “Similarities and differences in the localization, trafficking, and function of P-glycoprotein in MDR1-EGFP-transduced rat versus human brain capillary endothelial cell lines” (Fluids and Barriers of the CNS, 2021).

Key:
Pgp in RBE4-WT cells = test: Rhodamine 123 uptake/accumulation assay, RBE4-WT cells; format: cell-based, rat
Protocol: The functionality of Pgp in RBE4-WT, RBE4-MDR1-EGFP, hCMEC/D3-WT, hCMEC/D3-MDR1-EGFP cells, and primary rBCECs was analyzed by measuring the uptake of the fluorescent Pgp substrate Rho123 (Sigma-Aldrich). Cells were grown on 6-well plates and cultured for seven days in the presence or absence of doxycycline (1 µg/mL, Biochrom). […] Afterward, Rho123 (5 µM, dissolved in ethanol) was added and cells were incubated for another two hours. Rho123 transport was terminated by washing the cells twice with ice-cold PBS. Intracellular Rho123 concentration was determined by cell lysis in standard lysis buffer (25 mM Tris, 50 mM NaCl, 0.5% (w/v) sodium deoxycholate, 0.5% (w/v) Triton X-100) and measurement of fluorescence intensity with the FLUOstar OPTIMA (ex.: 485 nm, em.: 520 nm; BMG Labtech). Protein concentrations were determined using a BCA assay kit (Thermo Fisher Scientific). Rho123 uptake was obtained for each condition in triplicates and calculated as absolute fluorescence per mg protein. Additionally, Pgp functionality was expressed as multidrug resistance activity factor (MAF) as described by Huber et al.. This factor describes Pgp efflux activity based on differences in intracellular Rho123 accumulation in cells after Pgp inhibition compared to cells with active Pgp-mediated efflux. Thus, higher MAF values correlate with increased Pgp activity. For better comparison, differences in Rho123 accumulation are normalized to intracellular Rho123 levels in inhibitor-treated cells. MAF values for Pgp were calculated according to Huber et al. 2012 utilizing the following equation: MAF (%) = 100 · (MFITQ − MFI0)/(MFITQ) where MFITQ and MFI0 represent the mean fluorescence intensity of intracellular Rho123 in tariquidar (TQ)-treated and non-treated cells, respectively.

Pgp in primary rBCECs = test: Rhodamine 123 uptake/accumulation assay, primary rBCECs; format: cell-based, rat
From the text: The RBE4 and hCMEC/D3 cell lines used here are immortalized, which has the advantage that these cells are stable for several passages and may yield a large number of endothelial cells with the same genetic and phenotypical characteristics. The immortalization status, however, causes several alterations as compared to the native original cell type, including low junctional tightness of cell monolayers and reduced expression of efflux transporters such as Pgp. Therefore, for comparison with the MDR1-EGFP transduced rat RBE4 cells, experiments were also performed with primary cultured rat brain capillary endothelial cells (rBCECs). As described by us previously, rBCECs were prepared following a protocol by Régina et al. and Perrière et al. from 2 to 3 weeks old Wistar rats (obtained from Charles River; Sulzfeld, Germany). All animals were treated according to protocols evaluated and approved by the ethical committee of our university. In short, meninges were removed from cerebral cortices in phosphate-buffered saline (PBS) with 1% penicillin (100 U/mL)/streptomycin (100 μg/mL) (Biochrom AG) on ice. Subsequently, cortices were mechanically dissociated with scalpels. […]
The functionality of Pgp in RBE4-WT, RBE4-MDR1-EGFP, hCMEC/D3-WT, hCMEC/D3-MDR1-EGFP cells, and primary rBCECs was analyzed by measuring the uptake of the fluorescent Pgp substrate Rho123 (Sigma-Aldrich). […] Intracellular Rho123 concentration was determined by cell lysis in standard lysis buffer (25 mM Tris, 50 mM NaCl, 0.5% (w/v) sodium deoxycholate, 0.5% (w/v) Triton X-100) and measurement of fluorescence intensity with the FLUOstar OPTIMA (ex.: 485 nm, em.: 520 nm; BMG Labtech). Protein concentrations were determined using a BCA assay kit (Thermo Fisher Scientific). Rho123 uptake was obtained for each condition in triplicates and calculated as absolute fluorescence per mg protein. Additionally, Pgp functionality was expressed as multidrug resistance activity factor (MAF) as described by Huber et al.. […]

[1] = Rho123 5 µM, 2 h, without tariquidar
[2] = with vs without tariquidar 0.5 µM

SMILES: COC(=O)c1ccccc1-c1c2ccc(=N)cc-2oc2cc(N)ccc12 [Rho123, rhodamine 123]
- intracellular Rho123 accumulation (Pgp in RBE4-WT cells; [1]): 86,513 ± 2021 absolute fluorescence per mg p
- multidrug resistance activity factor (MAF) from intracellular Rho123 accumulation (Pgp in RBE4-WT cells; [2]): 37.5% ± 4.2
- intracellular Rho123 accumulation (Pgp in primary rBCECs; [1]): 56,482 ± 2456 absolute fluorescence per mg p
- multidrug resistance activity factor (MAF) from intracellular Rho123 accumulation (Pgp in primary rBCECs; [2]): 61.2% ± 2.7
